In patent publication US5559144A, “Furyl and thienyl alkynyl-N-hydroxy urea derivatives” (Abbott Laboratories, priority 1995, dated 1996) one finds inhibition in vivo and IC50 data, which are given here for 39 compounds.

The IC50 is the midpoint of a concentration-inhibition curve. A low value points to higher potency.

The first assay has as its system Leukotrienes (biosynthesis). Put plainly: Inhibition of leukotriene biosynthesis in vivo after oral administration, rat peritoneal anaphylaxis model. Particulars: 1 h, Oral Dose at 30 μmol/kg, gavage one hour prior to antigen challenge, read-out: Percent Inhibition of Leukotrienes. As to the method:
Inhibition of the biosynthesis of leuktrienes in vivo after oral administration of compound was determined using a rat peritoneal anaphylaxis model in a similar manner as that described by Young and coworkers (Young, P. R.; Dyer, R. D.; Carter, G. W. Fed. Proc., Fed. Am. Soc. Exp. Biol. 1985, 44, 1185). In this model rats were injected intraperitoneally (ip) with rabbit antibody to bovine serum albumin (BSA) and three hours later injected ip with BSA to induce an antgen-antibody response. Rats were sacrificed 15 minutes after this challenge and the peritoneal fluids were collected and analyzed for leukotriene levels. Test compounds were administered by gavage one hour prior to the antigen challenge. Percent inhibition values were determined by comparing the treatment group to the mean of the control group.
For the compound `CC(C#Cc1ccc(Oc2ccccc2)o1)N(O)C(N)=O` (stereo not shown) [Example 58, N-hydroxy-N-[4-(5-phenoxy-2-furyl)-3-butyn-2-yl]urea], the inhibition in vivo at 30 µmol/kg turned out to be 83%. With `NC(=O)N(O)CC#Cc1cccc(Oc2cccnc2)c1` [Example 54, N-Hydroxy-N-[3-[3-(3-pyridinyloxy)phenyl]-2-propyn-1-yl]urea], the inhibition in vivo at 30 µmol/kg is 78%. The same measure, in the same setting: the same measure for `NC(=O)N(O)CC#Cc1cccc(Oc2ccccn2)c1` [Example 63, N-Hydoxy-N-[3-[3-(2-pyridinyloxy)phenyl]-2-propyn-1-yl]urea]: 85%.

As for `CC(C#Cc1cccc(Oc2nccs2)c1)N(O)C(N)=O` (stereo not shown) [Example 66, N-Hydroxy-N-[4-[3-(2-thiazolyloxy)phenyl]-3-butyn-2-yl]urea], the inhibition in vivo at 30 µmol/kg turned out to be 40%. For the compound `NC(=O)N(O)CC#Cc1ccc(Oc2ccc(F)cc2)o1` [Example 60, N-hydroxy-N-{3-[5-(4-fluorophenoxy)-2-furyl]-2-propynyl}urea], the inhibition in vivo at 30 µmol/kg was 70%.

Still in this assay, the particulars now being: 1 h, Oral Dose at 100 μmol/kg, gavage one hour prior to antigen challenge, read-out: Percent Inhibition of Leukotrienes.
As for `NC(=O)N(O)CC#CCOc1cccc(Oc2cccnc2)c1` [Example 49], the inhibition in vivo at 100 µmol/kg was 98%.

As for `CC(C#Cc1cccc(Oc2ccc(Cl)cc2)c1)N(O)C(N)=O` (stereo not shown) [Example 42, N-Hydroxy-N-[4-[3-(4-chlorophenoxy)phenyl]-3-butyn-2-yl]urea], the inhibition in vivo at 100 µmol/kg is 66%.

`NC(=O)N(O)CC#Cc1cccc(Oc2ccccc2)c1` [Example 33, N-Hydroxy-N-[3-(3-phenoxyphenyl)-2-propynyl]urea]: the inhibition in vivo at 100 µmol/kg was found to be 99%. As for `COc1ccc(Oc2cccc(C#CCN(O)C(N)=O)c2)cc1` [Example 39], the inhibition in vivo at 100 µmol/kg amounted to 96%. In the case of `CC(C#Cc1ccoc1)N(O)C(N)=O` (stereo not shown) [Example 34, N-Hydroxy-N-[4-(3-furyl)-3-butyn-2-yl]urea], the inhibition in vivo at 100 µmol/kg was determined as 96%. `NC(=O)N(O)CC#CCOc1cccc(Oc2ccccc2)c1` [Example 38, N-Hydroxy-N-[4-(3-phenoxyphenoxy)-2-butynyl]urea]: the inhibition in vivo at 100 µmol/kg amounted to 100%.

Staying with this assay, now noted: 1 h, Oral Dose at 200 μmol/kg, gavage one hour prior to antigen challenge, read-out: Percent Inhibition of Leukotrienes.
For `CC(C#CCSc1ccccc1)N(O)C(N)=O` (stereo not shown) [Example 4, N-Hydroxy-N-(5phenylthio-3-pentyn-2-yl)urea], the inhibition in vivo at 200 µmol/kg stood at 64%. With `CC(C#CCOc1ccccc1)N(O)C(N)=O` (stereo not shown) [Example 10, N-Hydroxy-N-(5-phenoxy-3-pentyn-2-yl)urea], the inhibition in vivo at 200 µmol/kg was 99%. Still for that read-out and setting: the same measure for `COc1ccc2cc(C#CC(C)N(O)C(N)=O)ccc2c1` (stereo not shown) [Example 2, N-Hydroxy-N-[4-(6-methoxynaphth-2-yl)-3-butyn-2-yl]urea]: 66%.

A further assay concerns the target T1, 5-Lipoxygenase from RBL-1 20,000xg Supernatant (Rattus norvegicus, UniProt P12527).
T1 construct: 20,000 xg supernatant from 1.5 million homogenized RBL-1 cells; endogenous in cells; host or cells: RBL-1 cells (20,000 xg supernatant of homogenate)
T1 sequence (P12527 1-673): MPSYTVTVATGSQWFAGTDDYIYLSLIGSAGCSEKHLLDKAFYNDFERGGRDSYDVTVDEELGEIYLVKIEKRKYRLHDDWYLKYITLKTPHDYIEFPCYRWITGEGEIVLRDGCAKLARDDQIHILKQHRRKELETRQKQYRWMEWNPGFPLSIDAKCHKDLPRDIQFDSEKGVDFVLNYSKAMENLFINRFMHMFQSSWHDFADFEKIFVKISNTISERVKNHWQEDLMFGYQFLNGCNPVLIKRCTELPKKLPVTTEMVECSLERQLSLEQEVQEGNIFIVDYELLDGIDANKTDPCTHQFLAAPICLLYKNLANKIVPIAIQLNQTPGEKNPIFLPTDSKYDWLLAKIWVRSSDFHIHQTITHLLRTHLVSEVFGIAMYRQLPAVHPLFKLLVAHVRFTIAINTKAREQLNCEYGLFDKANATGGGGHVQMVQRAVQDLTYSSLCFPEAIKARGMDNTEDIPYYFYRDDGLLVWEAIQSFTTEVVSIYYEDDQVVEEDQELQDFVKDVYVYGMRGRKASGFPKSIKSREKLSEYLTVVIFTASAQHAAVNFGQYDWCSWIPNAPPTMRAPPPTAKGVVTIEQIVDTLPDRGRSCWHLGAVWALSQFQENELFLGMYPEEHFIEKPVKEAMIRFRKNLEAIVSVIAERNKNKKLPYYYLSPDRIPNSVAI
Put plainly: 5-lipoxygenase inhibitory activity, 20,000 xg supernatant from homogenized RBL-1 cells. Format: biochemical. Particulars: radiolabeled arachidonic acid, triplicate. The method, then: Assays to determine 5-lipoxygenase inhibitory activity of representative compounds of the present invention were performed in […] incubations containing the 20,000 xg supernatant from 1.5 million homogenized RBL-1 cells and various concentrations of the test compound. Reactions were initiated by addition of radiolabeled arachidonic acid and terminated by acidification and ether extraction. Reaction products were separated from nonconverted substrate by thin layer chromatography and measured by liquid scintillation spectroscopy. All incubations are performed in triplicate. Inhibition of 5-lipoxygenase activity was calculated as the ratio of the amount of product formed in the presence and absence of inhibitor. […] (Dyer, R. D.; Haviv, F.; Hanel, A. M.; Bornemier, D. A.; Carter, G. W. Fed. Proc., Fed. Am. Soc. Exp. Biol. 1984, 43, 1462A).
`CC(C#Cc1ccc(Oc2ccccc2)cc1)N(O)C(N)=O` (stereo not shown) [Example 12, N-Hydroxy-N[4-(4-phenoxyphenyl)-3-butyn-2-yl]urea] gave an IC50 of 300 nM. Still for that read-out and setting: the same measure for `CC(C#Cc1cccc(Oc2ccc(Cl)cc2)c1)N(O)C(N)=O` (stereo not shown) [Example 42, N-Hydroxy-N-[4-[3-(4-chlorophenoxy)phenyl]-3-butyn-2-yl]urea]: 500 nM. On to `CC(C#Cc1ccc(Oc2ccccc2)o1)N(O)C(N)=O` (stereo not shown) [Example 58, N-hydroxy-N-[4-(5-phenoxy-2-furyl)-3-butyn-2-yl]urea], for which the IC50 was 200 nM.

Compound `NC(=O)N(O)CC#Cc1cccc(Oc2ccccc2)c1` [Example 33, N-Hydroxy-N-[3-(3-phenoxyphenyl)-2-propynyl]urea] yielded an IC50 of 500 nM. `COc1ccc(Oc2cccc(C#CCN(O)C(N)=O)c2)cc1` [Example 39] registered an IC50 of 600 nM. This IC50 and that of the compound before are within 1.5-fold of each other.

As for `CC(C#CCSc1ccccc1)N(O)C(N)=O` (stereo not shown) [Example 4, N-Hydroxy-N-(5phenylthio-3-pentyn-2-yl)urea], the midpoint of inhibition, the IC50, lay at 400 nM. Compound `CC(C#Cc1cc2ccccc2s1)N(O)C(N)=O` (stereo not shown) [Example 16, N-Hydroxy-N-[4-(2-benzo[b]thienyl)-3-butyn-2-yl]urea] had an IC50 of 100 nM.

In the case of `COc1cccc(Oc2cccc(C#CC(C)N(O)C(N)=O)c2)n1` (stereo not shown) [Example 65, N-Hydroxy-N-[4-[3-(6-methoxypyridin-2-yloxy)phenyl]-3-butyn-2-yl]urea], the IC50 is 200 nM.

`CC(C#Cc1cccc(Oc2nccs2)c1)N(O)C(N)=O` (stereo not shown) [Example 66, N-Hydroxy-N-[4-[3-(2-thiazolyloxy)phenyl]-3-butyn-2-yl]urea] displayed an IC50 of 500 nM. Compared with the last compound, the IC50 is about 2.5-fold higher.

Consider `CC(C#Cc1ccoc1)N(O)C(N)=O` (stereo not shown) [Example 34, N-Hydroxy-N-[4-(3-furyl)-3-butyn-2-yl]urea], for which the IC50 came to 7000 nM. This IC50 is about 14-fold higher than that of the compound before. As to `CNC(=O)N(O)C(C)C#Cc1ccc(C)cc1` (stereo not shown) [Example 29, N-Hydroxy-N-[4-(4-methylphenyl)-3-butyn-2-yl]-N'-methylurea], the IC50 is 800 nM. `CNC(=O)N(O)C(C)C#Cc1ccc(C(C)C)cc1` (stereo not shown) [Example 23, N-Hydroxy-N-[4-[4-(1-methylethyl)phenyl]-3-butyn-2-yl]-N'-methylurea] gave an IC50 of 500 nM.

`CC(C#CCN(C)Cc1ccccc1)N(O)C(N)=O` (stereo not shown) [Example 5, N-Hydroxy-N-[5-[(N-methyl-N-benzyl)amino]-3-pentyn,2-yl]urea] gave an IC50 of 3600 nM.

On to `COc1ccc(Oc2cccc(C#CC(C)N(O)C(N)=O)c2)cc1` (stereo not shown) [Example 40, N-Hydroxy-N-[4-[3-(4-methoxyphenoxy)phenyl]-3-butyn-2-yl]urea], for which inhibition was half-maximal at 500 nM (IC50).

Turning to `Cc1ccc(Oc2cccc(C#CC(C)N(O)C(N)=O)c2)cc1` (stereo not shown) [Example 35, N-Hydroxy-N-[4-[3-(4-methylphenoxy)phenyl]-3-butyn-2-yl]urea], half-maximal inhibition (IC50) was put at 400 nM. The IC50 values of the last two compounds are within 1.5-fold of each other.

On to `CC(C#Cc1ccc(OCc2ccccc2)cc1)N(O)C(N)=O` (stereo not shown) [Example 7, N-Hydroxy-N-[4-(4-benzyloxyphenyl)-3-butyn-2-yl]urea], for which it took 130 nM to reach half-maximal inhibition (IC50). Compound `CC(C#Cc1ccco1)N(O)C(N)=O` (stereo not shown) [Example 31, N-Hydroxy-N-[4-(2-furyl)-3-butyn-2-yl]urea] showed a half-inhibitory concentration (IC50) of 6200 nM. `COc1ccc(C#CC(C)N(O)C(N)=O)cc1` (stereo not shown) [Example 37, N-Hydroxy-N-[4-(4-methoxyphenyl)-3-butyn-2-yl]urea] displayed an IC50 of 2000 nM. Compound `CCc1ccc(C#CC(C)N(O)C(N)=O)cc1` (stereo not shown) [Example 24, N-Hydroxy-N-[4-(4-ethylphenyl)-3-butyn-2-yl]urea] showed an IC50 of 300 nM. In turn, `CC(C#Cc1cccc(Oc2ccccc2)c1)N(O)C(N)=O` (stereo not shown) [Example 3, N-Hydroxy-N-[4-(3-phenoxyphenyl)-3-butyn-2-yl]urea] had an IC50 of 100 nM. Compound `CC(C#CCCc1cccc(Oc2ccccn2)c1)N(O)C(N)=O` (stereo not shown) [Example 55, N-Hydroxy-N-[6-[3-(2-pyridinyloxy)phenyl]-3-hexyn-2-yl,1]-urea] returned an IC50 of 900 nM.

`CC(C#Cc1cccc(OCc2ccccc2)c1)N(O)C(N)=O` (stereo not shown) [Example 6, N-Hydroxy-N-[4-(3-benzyloxyphenyl)-3-butyn-2-yl]urea] returned an IC50 of 200 nM.

Take `CNC(=O)N(O)C(C)C#Cc1ccccc1` (stereo not shown) [Example 15, N-Hydroxy-N-(4-phenyl-3-butyn-2-yl)-N'-methylurea]: the midpoint of inhibition, the IC50, lay at 3300 nM. `CNC(=O)N(O)C(C)C#Cc1cccc(Oc2ccccn2)c1` (stereo not shown) [Example 56, N-Hydroxy-N-[4-[3-(2-pyridinyloxy)phenyl]-3-butyn-2-yl]-N'-methylurea] registered an IC50 of 300 nM. `CC(C#CCOc1cccc(Oc2ccccc2)c1)N(O)C(N)=O` (stereo not shown) [Example 45, N-Hydroxy-N-[5-(3-phenoxyphenoxy)-3-pentyn-2-yl]urea] had an IC50 of 200 nM. Consider `CNC(=O)N(O)C(C)C#CCCc1ccccc1` (stereo not shown) [Example 27, N-Hydroxy-N-(6-phenyl-3-hexyn-2-yl)-N'-methylurea], for which it took 700 nM to reach half-maximal inhibition (IC50). As for `CC(C#CC1=CCCCC1)N(O)C(N)=O` (stereo not shown) [Example 9, N-Hydroxy-N-(4-cyclohexen-1-yl-3butyn-2-yl)urea], the IC50 worked out at 1200 nM.

Turning to `Cc1ccc(C#CC(C)N(O)C(N)=O)cc1` (stereo not shown) [Example 28, N-Hydroxy-N-[4-(4-methylphenyl)-3-butyn-2-yl]urea], it took 1400 nM to reach half-maximal inhibition (IC50). The IC50 values of the last two compounds are within 1.5-fold of each other.

`CNC(=O)N(O)C(C)C#Cc1ccc(Br)cc1` (stereo not shown) [Example 18, N-Hydroxy-N-[4-(4-bromophenyl)-3-butyn-2-yl]-N'-methylurea] had an IC50 of 500 nM.

For the compound `Cc1ccc(C#CC(C)N(O)C(N)=O)s1` (stereo not shown) [Example 14, N-Hydroxy-N-[4-(5,methylthien-2-yl)-3-butyn-2-y]urea], the IC50 came out at 1700 nM. Consider `CCCCc1ccc(C#CC(C)N(O)C(N)=O)s1` (stereo not shown) [Example 13, N-Hydroxy-N-[4-(5-butylthien-2-yl)-3-butyn-2-yl]urea], for which it took 300 nM to reach half-maximal inhibition (IC50).

As for `NC(=O)N(O)CC#CCOc1ccccc1` [Example 41, N-Hydroxy-N-(4-phenoxy-2-butynyl)urea], the IC50 is 3500 nM.
